{"source": "patent US20050102708A1", "about": "“Animal model simulating neurologic disease” (priority 2003, published 2005)", "key": {"[1]": {"tested_on": "Hyperphosphorylated Tau protein", "experiment": "ELISA of hyperphosphorylated Tau protein in CSF", "type": "in vivo, rat", "conditions": "rats, four week infusion into the left ventricle", "method": "(§1) Surgical procedure: Anesthetized rats (equitesin, 3 ml/kg, i.p.) were placed on a stereotaxic frame. Using the electrode micromanipulator, the outlet of an osmotic micropump (Durect Corp., Cupertino, Calif.) was implanted into the left ventricle following the coordinates D=3.4 mm, L=1.4 mm and AP=0.92 mm prior to the bregma. The tank of the osmotic pump was implanted in a subcutaneous pocket in the midscapular area of the back of the rat. After surgery rats were put on a heating blanket for recovery. During the whole procedure, the body temperature was monitored and kept stable at 37° C.\nPerfusion: Rats were divided into six groups regarding the composition of the solution contained in the osmotic micropump tank, as provided in Table 1. Group I served as the control group and received only artificial cerebrospinal fluid (“CSF”).\nELISA: Hyperphosphorylated Tau protein was measured in the CSF using the Elisa kit INNOTEST™ (Innogenetics, Belgium)."}, "Long-Evans male rats": {"tested_on": "Long-Evans male rats", "experiment": "Morris watermaze memory retention test", "type": "in vivo, rat", "conditions": "four week infusion into the left ventricle, tested at end of perfusion period", "text": "Inducing a Neurologic Disease in a Non-Human Animal. Animals: Long-Evans male rats weighing 300-325 grams were housed following a natural day-night cycle with food and water ad libitum.\nMorris watermaze protocol: Before the surgery, the rats were trained on a standard Morris spatial navigation task in a black water tank (200 cm diameter). The water was rendered opaque by water-miscible non-toxic white paint (Crayola Inc.). The rats were placed in four different, randomly assigned, start positions and trained to find an invisible platform (20 cm diameter) at a fixed position in the middle of the water tank. The water temperature was about 24° C. A trial lasted until a rat found the platform or until 120 seconds elapsed. […] Rats were trained for four consecutive days, four trials a day, with 30 minutes between subsequent trials. Surgery procedures were performed on the fifth day. Rats were tested again for memory retention at the end of the four weeks-perfusion period.\nas §1, with “The tank of the osmotic pump was implanted in a subcutaneous pocket in the midscapular area of the back of the rat. After surgery rats were put on a heating blanket for recovery.” left out, “C. […]” for “C.”"}}, "data": [{"substance": "β42-amyloid peptide [Aβ42]", "values": [{"measurement": "phosphorylated Tau protein in the CSF", "setting": "[1]", "value": "not sufficient to induce"}, {"measurement": "memory impairment / latency to retrieve the platform in the Morris watermaze test", "setting": "Long-Evans male rats", "value": "not sufficient to induce memory impairment"}]}]}
